Laboratory results published in patent US20180209956A1, “HTS Assay for Identifying Small Molecule Inhibitors of RAD52 and Uses of Identified Small Molecule Inhibitors for Treatment and Prevention of BRCA-Deficient Malignancies” (University of Iowa Research Foundation, priority 2015, published 2018).

Experiments:
[1] = molecular target: T1, RAD52-ssDNA interaction (Homo sapiens, UniProt P43351); test: FRET-based ssDNA binding and wrapping assay (RAD52-Cy3-dT30-Cy5 complex); conditions: FRET-based competition assay; read-out: IC50, RAD52-ssDNA interaction
T1 construct: made in house
T1 sequence (P43351 1-418): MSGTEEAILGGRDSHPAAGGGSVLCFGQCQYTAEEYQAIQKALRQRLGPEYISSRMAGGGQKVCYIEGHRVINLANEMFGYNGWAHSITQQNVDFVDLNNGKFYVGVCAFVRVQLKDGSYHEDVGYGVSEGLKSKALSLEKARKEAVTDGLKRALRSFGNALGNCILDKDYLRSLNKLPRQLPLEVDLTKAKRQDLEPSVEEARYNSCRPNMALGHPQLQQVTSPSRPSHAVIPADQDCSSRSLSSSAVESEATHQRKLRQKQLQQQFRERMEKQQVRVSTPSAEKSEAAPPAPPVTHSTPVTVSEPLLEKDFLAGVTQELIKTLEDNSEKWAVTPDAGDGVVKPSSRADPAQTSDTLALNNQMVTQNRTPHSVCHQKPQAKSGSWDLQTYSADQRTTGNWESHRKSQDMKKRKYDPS
Procedure: We titrated increasing amounts of each compound into a cuvette containing preformed stoichiometric RAD52-Cy3-dT30-Cy5 complexes (1 nM Cy3-dT30-Cy5 and 8 nM RAD52). […] At each concentration of the compound, the FRET signal was adjusted for the change in Cy3 and Cy5 fluorescence in the presence of the compound, but in the absence of protein.
(§1) FRET-based DNA binding and annealing assays: FRET-based ssDNA binding, dsDNA binding, and annealing assays were carried out as previously described (Grimme et al., 2010, Grimme and Spies, 2011) using Cary Eclipse spectrofluorimeter (Varian) at 25° C. in buffer containing 30 mM Tris-Acetate pH7.5, 1 mM DTT, and 0.1 mg/mL BSA. Cy3 dye was excited at 530 nm and its emission was monitored at 565 nm. Emission of Cy5 acceptor fluorophore excited through the energy transfer from Cy3 donor is monitored at 660 nm simultaneously with emission of Cy3 dye. Both the excitation and the emission slit widths were set to 10 nm.
All experiments were performed in triplicates, and the data are shown as averages and standard deviations for three independent measurements. To remove possible experimental artifacts associated with chromogenic or fluorogenic compounds, as well as with the compounds that may quench or enhance Cy3 or Cy5 fluorescence, we also performed control titrations whereby we titrated each compound into 1 nM Cy3-dT30-Cy5 in the absence of RAD52. For each compound concentration we subtracted the difference in the FRET signal in the presence and absence of the compound from the respective FRET signal in the presence of RAD52. The FRET signal corrected for the compound fluorescence was calculated using the equation: […]
as previously described (Grimme et al., 2010, Grimme and Spies, 2011) and plotted as a function of compound concentration and fitted to the following inhibition model”
(§2) where FRET0 is the initial FRET value of RAD52-ssDNA complex in the absence of the compound and FRETmin is the FRET value at complete inhibition. FRET values were calculated as an average of three or more independent annealing reactions plotted against the concentration of the compound. Inhibition of the RAD52-dsDNA interaction was assayed in a similar experiment, except the stoichiometric complexes containing 1 nM molecules of Cy3-Oligo28-Cy5 duplex DNA and 10 nM RAD52. […] In all experiments, the FRET values for each data point were corrected for the effects of the compounds on the respective substrate in the absence of RAD52.

[2] = molecular target: T2, RAD52-RPA-Cy3-dT30-Cy5 complex (Homo sapiens, UniProt P43351); test: FRET-based RAD52 binding/wrapping of RPA-coated ssDNA
T2 construct: made in house
Procedure: RPA binds ssDNA with high affinity and extends the ssDNA to its contour length.
as §2

[3] = molecular target: T3, RAD52-dsDNA interaction (Homo sapiens, UniProt P43351); test: FRET-based RAD52-dsDNA binding assay; conditions: 1 nM dsDNA, 10 nM RAD52
T3 construct: made in house
T3 sequence (P43351 1-418): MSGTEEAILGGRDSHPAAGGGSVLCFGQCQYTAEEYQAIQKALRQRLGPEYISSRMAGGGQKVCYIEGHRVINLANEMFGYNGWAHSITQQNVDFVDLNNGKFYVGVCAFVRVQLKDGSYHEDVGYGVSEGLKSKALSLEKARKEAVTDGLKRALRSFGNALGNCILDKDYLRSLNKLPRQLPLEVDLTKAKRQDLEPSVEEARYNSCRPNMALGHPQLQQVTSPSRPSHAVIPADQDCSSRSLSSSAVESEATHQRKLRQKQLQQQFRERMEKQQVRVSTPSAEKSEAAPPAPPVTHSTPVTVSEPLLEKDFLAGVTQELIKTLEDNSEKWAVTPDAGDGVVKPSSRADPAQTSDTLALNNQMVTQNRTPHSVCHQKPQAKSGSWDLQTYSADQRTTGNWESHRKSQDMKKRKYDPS
Text: These assays utilize two complementary single stranded 28-nucleotide-long substrates, which contain either Cy3 (T-28) or Cy5 (P-28) incorporated into the middle of the respective DNA strand. When the substrates are annealed by RAD52, the Cy3 and Cy5 dyes are separated by 3 base pairs and yield a high FRET signal (FIG. 2 Supplement 2). […] The annealing reactions were initiated by mixing two half reactions and observing the change in FRET over time in the presence of varying concentrations of small molecules. An increasing FRET value over time indicates formation of the dsDNA duplex which brings the two dyes in close proximity (FIG. 2 Supplement 2). Fitting the annealing data to a double exponential allowed us to calculate and compare the final extent of annealing at varying concentrations of each compound compared to RAD52 alone. We plotted the final extent of annealing vs the concentration of the compound and calculated an IC50 of annealing inhibition.
where FRET0 is the initial FRET value of RAD52-ssDNA complex in the absence of the compound and FRETmin is the FRET value at complete inhibition. FRET values were calculated as an average of three or more independent annealing reactions plotted against the concentration of the compound. […]

[4] = molecular target: T4, RPA (Homo sapiens, UniProt P15927+P27694+P35244); test: WaterLOGSY NMR analysis of compound binding to RPA; conditions: 20 or 40 μM compound, 3.3 μM RPA
T4 construct: made in house
Text: Compounds ‘1’ and ‘6’ physically interact with RAD52: To confirm that the selected compounds bind RAD52, we employed water-ligand observation with gradient spectroscopy (WaterLOGSY), an NMR technique, which is based on transfer of magnetization from bulk water to the protein-bound compound of interest (Dalvit et al., 2001, Dalvit et al., 2000). In WaterLOGSY spectrum, if a compound binds to a protein, the compound will receive negative nuclear Overhauser effects (NOEs) due to the slow tumbling of the protein-compound complex, leading to a positive WaterLOGSY peak.
(§3) WaterLOGSY NMR analysis of the compound binding to RAD52 and RPA proteins: Compound binding to RAD52 and RPA proteins was analyzed using water-ligand observation with gradient spectroscopy (WaterLOGSY) NMR experiments (Dalvit et al., 2001, Dalvit et al., 2000). The WaterLOGSY spectra of compounds in the presence of RAD52 or RPA were acquired using a water NOE mixing time of 1 s and a T2 relaxation filter of 50 ms just before data acquisition to suppress the broad signals derived from protein. The protein buffer used in the experiments contains 10 mM Tris-d11, 75 mM KCl, 0.25 mM EDTA, pH 7.5, and 10% D20. All NMR data were acquired on a Bruker Avance II 800 MHz NMR spectrometer equipped with a sensitive cryoprobe and recorded at 25° C. The ^1H chemical shifts were referenced to 2,2-dimethyl-2-silapentane-5-sulfonate (DSS). NMR spectra were processed using NMR Pipe (Delaglio et al., 1995) and analysed using NMR View (Johnson and Blevins, 1994).

[5] = molecular target: T5, RPA-ssDNA interaction (Homo sapiens, UniProt P15927+P27694+P35244); test: FRET titration of the RPA-Cy3-dT30-Cy5 complex; assay type: binding
T5 construct: made in house
Text: Compounds ‘1’ and ‘6’ inhibit RAD52 binding to and annealing of the RPA-coated ssDNA: In the cell, ssDNA is typically found in complex with Replication protein A (RPA), which is the major eukaryotic ssDNA-binding protein essential for DNA replication, repair and recombination (Wold, 1997, Oakley and Patrick, 2010, Chen and Wold, 2014). The RPA-ssDNA complex is a natural substrate for the RDA52-mediated strand annealing. To confirm that compounds ‘1’ and ‘6’ can inhibit the RAD52 binding to and annealing of the RPA-coated ssDNA we added stoichiometric amounts of RPA (1 RPA per 30 nucleotides of ssDNA) to the FRET-based ssDNA binding/wrapping and ssDNA annealing experiments described above. RPA binds ssDNA with high affinity and extends the ssDNA to its contour length. In our assays such an extension manifests as a distinct FRET state of ˜0.3, which is readily distinguished from a FRET state of ˜0.48 of free Cy3-dT30-Cy5 ssDNA, as well as ˜0.63 FRET of the stoichiometric ssDNA-RPA-RAD52 complex (see FIG. 2 Supplement 1 and (Grimme and Spies, 2011) for details). […] Both, however, inhibited the RAD52 binding to and wrapping of RPA-coated ssDNA with IC50 values identical to those determined without RPA (FIG. 2e and FIG. 3e).
as §2

[6] = molecular target: T6, RAD52 (Homo sapiens, UniProt P43351); test: WaterLOGSY NMR analysis of compound binding to RAD52; set-up: made in house; conditions: 20 or 40 μM compound, 3.3 μM RAD52
T6 sequence (P43351 1-418): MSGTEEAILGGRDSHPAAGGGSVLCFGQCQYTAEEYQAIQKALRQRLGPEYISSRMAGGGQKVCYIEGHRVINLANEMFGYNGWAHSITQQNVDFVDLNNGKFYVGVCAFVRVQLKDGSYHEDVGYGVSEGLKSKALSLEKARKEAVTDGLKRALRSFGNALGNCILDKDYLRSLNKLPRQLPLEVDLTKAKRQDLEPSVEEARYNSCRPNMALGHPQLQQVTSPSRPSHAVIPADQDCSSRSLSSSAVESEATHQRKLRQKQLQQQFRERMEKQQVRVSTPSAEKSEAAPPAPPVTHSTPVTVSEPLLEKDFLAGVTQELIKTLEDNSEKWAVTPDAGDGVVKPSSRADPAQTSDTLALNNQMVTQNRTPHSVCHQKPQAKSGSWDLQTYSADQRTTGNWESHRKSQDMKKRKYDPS
Procedure: In WaterLOGSY spectrum, if a compound binds to a protein, the compound will receive negative nuclear Overhauser effects (NOEs) due to the slow tumbling of the protein-compound complex, leading to a positive WaterLOGSY peak.
as §3

[7] = molecular target: T6, RAD52; conditions: cited from earlier work
[8] = Solubility observed during testing; assay type: physicochemical
[9] = molecular target: T7, RAD52 (Homo sapiens, UniProt P43351 P43351:1-418); test: method FRET; stoichiometric wrapped complex at about 8 nM RAD52 with 1 nM ssDNA; 30 mM Tris-acetate pH 7.5, 1 mM DTT, 0.1 mg/mL BSA, 25 C; also bound when ssDNA is RPA-coated (FRET about 0.63); conditions: tags: 6xHis; chain copies: heptameric ring per 30-mer ssDNA (stated); label: Cy3 and Cy5 at the ends
T7 sequence: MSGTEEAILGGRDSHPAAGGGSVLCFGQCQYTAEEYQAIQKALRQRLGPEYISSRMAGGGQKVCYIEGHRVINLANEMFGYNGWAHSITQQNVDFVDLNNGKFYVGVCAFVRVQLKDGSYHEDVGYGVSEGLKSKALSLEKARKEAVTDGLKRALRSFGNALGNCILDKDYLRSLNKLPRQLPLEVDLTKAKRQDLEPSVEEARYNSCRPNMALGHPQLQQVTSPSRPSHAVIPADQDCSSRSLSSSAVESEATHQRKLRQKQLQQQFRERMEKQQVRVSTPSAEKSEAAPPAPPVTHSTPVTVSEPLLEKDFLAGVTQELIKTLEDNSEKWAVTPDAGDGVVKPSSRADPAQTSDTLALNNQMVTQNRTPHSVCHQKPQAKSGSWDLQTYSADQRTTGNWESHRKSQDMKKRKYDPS
Procedure: as §1

[10] = molecular target: RPA (RPA70/RPA35/RPA14 heterotrimer) (UniProt P27694;P15927;P35244 P27694:1-616,P15927:1-270,P35244:1-121); test: FRET; 1:1 stoichiometric complex, FRET about 0.3 vs about 0.48 for free ssDNA; 30 mM Tris-acetate pH 7.5, 25 C; conditions: tags: untagged; label: Cy3 and Cy5 at the ends
[11] = molecular target: T7, RAD52; test: competition; 10 nM poly(dT)-100 fully inhibits wrapped RAD52-Cy3-dT30-Cy5 complex (100 nM RAD52, 15 nM dT30); 20 mM Hepes pH 7.5, 1 mM DTT, 0.1 mg/mL BSA; conditions: tags: 6xHis; chain copies: heptameric ring per 30-mer ssDNA (stated)

T5 sequence (P27694 whole entry): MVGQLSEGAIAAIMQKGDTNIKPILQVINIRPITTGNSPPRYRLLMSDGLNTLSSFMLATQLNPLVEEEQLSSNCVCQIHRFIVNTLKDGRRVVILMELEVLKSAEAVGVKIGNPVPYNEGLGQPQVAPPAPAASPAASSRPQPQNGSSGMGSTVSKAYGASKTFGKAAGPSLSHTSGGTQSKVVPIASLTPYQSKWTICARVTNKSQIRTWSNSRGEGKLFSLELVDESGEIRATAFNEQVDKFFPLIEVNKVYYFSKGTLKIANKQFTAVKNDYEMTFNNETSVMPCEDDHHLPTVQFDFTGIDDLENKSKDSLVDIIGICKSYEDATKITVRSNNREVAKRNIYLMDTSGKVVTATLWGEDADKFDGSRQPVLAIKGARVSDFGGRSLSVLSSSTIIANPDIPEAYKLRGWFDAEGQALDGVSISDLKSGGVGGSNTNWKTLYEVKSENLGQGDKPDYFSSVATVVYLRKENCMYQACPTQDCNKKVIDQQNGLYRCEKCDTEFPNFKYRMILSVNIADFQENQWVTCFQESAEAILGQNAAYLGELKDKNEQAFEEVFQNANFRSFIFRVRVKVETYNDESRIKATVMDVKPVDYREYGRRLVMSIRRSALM
T5 sequence (P15927 whole entry): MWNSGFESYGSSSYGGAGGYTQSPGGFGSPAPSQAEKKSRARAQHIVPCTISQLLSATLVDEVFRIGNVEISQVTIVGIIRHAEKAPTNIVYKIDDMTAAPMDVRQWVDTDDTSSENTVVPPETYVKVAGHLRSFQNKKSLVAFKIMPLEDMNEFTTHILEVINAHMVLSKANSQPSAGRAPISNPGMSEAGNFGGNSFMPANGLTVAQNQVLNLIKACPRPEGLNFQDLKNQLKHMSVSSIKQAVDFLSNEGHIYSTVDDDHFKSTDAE
T5 sequence (P35244 whole entry): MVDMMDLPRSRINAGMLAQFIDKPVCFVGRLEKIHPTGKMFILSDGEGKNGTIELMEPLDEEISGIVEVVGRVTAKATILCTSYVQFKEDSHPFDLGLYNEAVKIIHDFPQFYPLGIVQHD
T4 sequence (P27694 whole entry): as the sequence (P27694 whole entry) above
T4 sequence (P15927 whole entry): as the sequence (P15927 whole entry) above
T4 sequence (P35244 whole entry): as the sequence (P35244 whole entry) above
Sequence of RPA (RPA70/RPA35/RPA14 heterotrimer) (P27694 whole entry, chain 1 of 3): as the sequence (P27694 whole entry) above
Sequence of RPA (RPA70/RPA35/RPA14 heterotrimer) (P15927 whole entry, chain 2 of 3): as the sequence (P15927 whole entry) above
Sequence of RPA (RPA70/RPA35/RPA14 heterotrimer) (P35244 whole entry, chain 3 of 3): as the sequence (P35244 whole entry) above
T2 sequence (P27694 whole entry partner, one chain of several): as the sequence (P27694 whole entry) above
T2 sequence (P15927 whole entry partner, one chain of several): as the sequence (P15927 whole entry) above
T2 sequence (P35244 whole entry partner, one chain of several): as the sequence (P35244 whole entry) above

## O=C(O[C@@H]1O[C@@H]2COC(=O)c3cc(O)c(O)c(O)c3-c3c(cc(O)c(O)c3O)C(=O)O[C@H]([C@H]1O)[C@@H]2O)c1cc(O)c(O)c(O)c1 [NP-004255, corilagin]
[1]
  IC50: 1.5 ± 0.2 µM
[2]
  IC50: 0.5 ± 0.1 µM
[3]
  Effect on the RAD52-dsDNA interaction: no effect
[4]
  Binding to RPA by WaterLOGSY: bound RPA
[5]
  Effect on the RPA-ssDNA interaction: did not affect the RPA-ssDNA complex
[6]
  Binding to RAD52 by WaterLOGSY: physically interacts with RAD52 protein

## NC(Cc1cc(O)c(O)cc1O)C(=O)O (racemic) [6-hydroxy-DL-dopa]
[7]
  Effect on supramolecular assembly of RAD52: disrupts supramolecular assembly of the RAD52 protein

## CCOc1ccccc1NC(=O)c1c(NC(=O)Cc2ccc(OC)cc2)sc2c1CCC2 [Compound R29, N-(2-ethoxyphenyl)-2-{[(4-methoxyphenyl)acetyl]amino)-5,6-dihydro-4H-cyclopenta[b]thiophene-3-carboxamide]
[8]; DMSO at 25 mM
  Solubility: Compound is insoluble in DMSO at 25 mM

## O=c1c2ccccc2nc(CSc2ncnc3[nH]cnc23)n1-c1cccc(C(F)(F)F)c1 [Compound R27, 2-[(9H-purin-6-ylthio)methyl]-3-[3-(trifluoromethyl)phenyl]-4(3H)-qhinazolinone]
[8]; 30 mM Tris-Acetate pH 7.5, 1 mM DTT at 115 μM
  Solubility: Insoluble in 30 mM Tris-Acetate pH 7.5, 1 mM DTT at 115 μM

B1: Cy3-dT30-Cy5 (ssDNA)
DNA: TTTTTTTTTTTTTTTTTTTTTTTTTTTTTT
[9]
  binding result: binds
[10]
  binding result: binds

B2: Poly dT100 (ssDNA)
DNA: TTTTTTTTTTTTTTTTTTTTTTTTTTTTTTTTTTTTTTTTTTTTTTTTTTTTTTTTTTTTTTTTTTTTTTTTTTTTTTTTTTTTTTTTTTTTTTTTTTTT
modifications: [none]
[11]
  binding result: binds
